Test results: patent US6512000B1, “Aminocarbonyl-substituted benzimidazoles having tryptase-inhibitory activity” (Boehringer Ingelheim Pharma KG, priority 1999, dated 2003)
Structures can show the parent of a compound that is named as a salt.

Biological target: T1, rh beta tryptase (Homo sapiens, UniProt P20231)
T1 construct: purchased Promega
Assay: Tryptase inhibition test (cleavage of N-p-tosyl-Gly-Pro-Lys-para-nitroaniline, p-nitroaniline measured at 405 nm)
Format: biochemical
Details: pH 7.4, 37° C.; for inhibition at 10 µM / % Inhibition (10 μM): inhibition of rh beta tryptase at 10 μM test substance, substrate N-p-tosyl-Gly-Pro-Lys-para-nitroaniline 0.6 mM, 5 minutes; for IC50: concentration at which 50% of the tryptase enzyme activity is inhibited, substrate 0.6 mM
Method in brief: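 Screening at 10 μM gives percent inhibition, with IC50 derived for compounds above 70% inhibition. Enzyme: rh beta tryptase, 0.91 U/ml, pH 7.4 Tris HCl (100 mM), 5 mM Ca, 100 mg/ml heparin. After 5 min compound pre-incubation, 0.6 mM pNA substrate cleaved 5 min at 37 °C, monitored at 405 nm.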

T1 sequence (P20231 31-275): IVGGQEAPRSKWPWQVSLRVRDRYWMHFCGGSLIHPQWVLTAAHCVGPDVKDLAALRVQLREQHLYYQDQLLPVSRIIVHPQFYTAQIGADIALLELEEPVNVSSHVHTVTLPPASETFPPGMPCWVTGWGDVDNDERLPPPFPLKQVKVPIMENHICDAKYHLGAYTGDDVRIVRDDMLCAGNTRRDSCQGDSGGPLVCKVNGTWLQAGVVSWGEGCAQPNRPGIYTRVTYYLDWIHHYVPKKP

Molecule	inhibition at 10 µM [%]	IC50 [nM]	% Inhibition (10 μM) [%]
N=C(N)c1ccc(CCc2nc3cc(C(=O)N(CCN)CCCc4ccccc4)ccc3n2CC2CCCO2)cc1 (stereo not shown) [Example 370, 2-[2-(4-amidinophenyl)ethyl]-1-(tetrahydrofuran-2-yl-methyl)-benzimidazol-5-yl-carboxylic acid-N-(2-aminoethyl)-N-(3-phenylpropyl)-amide]	53		
Cc1ccccc1N1CCCN(C(=O)c2ccc3c(c2)nc(CCc2ccc(C(=N)N)cc2)n3C)CC1 [Example 15, 2-[2-(4-Amidinophenyl)-ethyl]-1-methyl-benzimidazol-5-yl-carboxylic Acid-[N′-(2-methyl-phenyl)-diazepide]-hydrochloride]		98	
N=C(N)c1ccc(CCc2nc3cc(C(=O)N(CCN)CC4CCCCC4)ccc3n2Cc2cccs2)cc1 [Example 355, 2-[2-(4-amidinophenyl)ethyl]-1-(2-thiophenyl-methyl)-benzimidazol-5-yl-carboxylic acid-N-(2-aminoethyl)-N-cyclohexylmethyl-amide]	51		
CC(C)N(CCC(=N)N)C(=O)c1ccc2c(c1)nc(CCc1ccc(C(=N)N)cc1)n2C [Example 27, 2-[2-(4-Amidinophenyl)-ethyl]-1-methyl-benzimidazol-5-yl-carboxylic Acid-N-(2-amidinoethyl)-N-iso-propyl-amide-dihydrochloride]		153	
2-[2-(4-amidinophenyl)ethyl]-1-(tetrahydrofuran-2-yl-methyl)-benzimidazol-5-yl-carboxylic acid-N-[4-(amino-methyl)-benzyl]-N-(3-pyridyl)-amide [Example 146]			65
CCOCCCn1c(CCc2ccc(C(=N)N)cc2)nc2cc(C(=O)N(CCN)Cc3ccccc3F)ccc21 [Example 406, 2-[2-(4-amidinophenyl)ethyl]-1-(3-ethoxypropyl)-benzimidazol-5-yl-carboxylic acid-N-(2-aminoethyl)-N-(2-fluorobenzyl)-amide]	54	392	
CCCCN(CCN)C(=O)c1ccc2c(c1)nc(CCc1ccc(C(=N)N)cc1)n2CCCNC(=O)Cc1ccccc1 [Example 280, 2-[2-(4-amidinophenyl)ethyl]-1-[3-(benzylcarbonylamino)-propyl]-benzimidazol-5-yl-carboxylic acid-N-(2-aminoethyl)-N-n-butyl-amide]	59		
Cn1c(CCc2ccc(C(=N)N)cc2)nc2cc(C(=O)N3CCN(C4CCCC4)CC3)ccc21 [Example 50, 2-[2-(4-Amidinophenyl)-ethyl]-1-methyl-benzimidazol-5-yl-carboxylic Acid-[N′-(cyclopentyl)-piperazide]]		176	
CCCCN(CCN)C(=O)c1ccc2c(c1)nc(CCc1ccc(C(=N)N)cc1)n2CC1CCCO1 (stereo not shown) [Example 290, 2-[2-(4-amidinophenyl)ethyl]-1-(tetrahydrofuran-2-yl-methyl)-benzimidazol-5-yl-carboxylic acid-N-(2-aminoethyl)-N-n-butyl-amide]	70		
CCOCCCn1c(CCc2ccc(C(=N)N)cc2)nc2cc(C(=O)N(Cc3ccc(Cl)cc3)Cc3ccc(CN)cc3)ccc21 [Example 182, 2-[2-(4-amidinophenyl)ethyl]-1-(3-ethoxypropyl)-benzimidazol-5-yl-carboxylic acid-N-[4-(amino-methyl)-benzyl]-N-(4-chlorbenzyl)-amide]			67
N=C(N)c1ccc(CCc2nc3cc(C(=O)N(Cc4ccc(Cl)cc4)Cc4ccc(CN)cc4)ccc3n2CC2CCCO2)cc1 (stereo not shown) [Example 194, 2-[2-(4-amidinophenyl)ethyl]-1-(tetrahydrofuran-2-yl-methyl)-benzimidazol-5-yl-carboxylic acid-N-[4-(amino-methyl)-benzyl]-N-(4-chlorbenzyl)-amide]			61
CCCCN(CCCC)CCCn1c(CCc2ccc(C(=N)N)cc2)nc2cc(C(=O)N(CCN)CCCC)ccc21 [Example 279, 2-[2-(4-amidinophenyl)ethyl]-1-(3-di-n-butylaminopropyl)-benzimidazol-5-yl-carboxylic acid-N-(2-aminoethyl)-N-n-butyl-amide]	60		

More lines, main results first:

inhibition at 10 µM [%]	IC50 [nM]	Molecule	% Inhibition (10 μM) [%]
59		COC(=O)c1ccc(CN(Cc2ccc(CN)cc2)C(=O)c2ccc3c(c2)nc(CCc2ccc(C(=N)N)cc2)n3CC2CC2)cc1 [Example 442, 2-[2-(4-amidinophenyl)ethyl]-1-cyclopropylmethyl-benzimidazol-5-yl-carboxylic acid-N-[4-(amino-methyl)-benzyl]-N-[4-(methoxycarbonyl)-benzyl]-amide]	
57	274	CCOCCCn1c(CCc2ccc(C(=N)N)cc2)nc2cc(C(=O)N(CCCc3ccccc3)Cc3ccc(CN)cc3)ccc21 [Example 166, 2-[2-(4-amidinophenyl)ethyl]-1-(3-ethoxypropyl)-benzimidazol-5-yl-carboxylic acid-N-[4-(amino-methyl)-benzyl]-N-(3-phenylpropyl)-amide]	
58	284	CCOCCCn1c(CCc2ccc(C(=N)N)cc2)nc2cc(C(=O)N(CCN)Cc3cccc(OC)c3)ccc21 [Example 262, 2-[2-(4-amidinophenyl)ethyl]-1-(3-ethoxypropyl)-benzimidazol-5-yl-carboxylic acid-N-(2-aminoethyl)-N-(3-methoxybenzyl)-amide]	
60		N=C(N)c1ccc(CCc2nc3cc(C(=O)N(Cc4ccc(CN)cc4)CC4CCCCC4)ccc3n2CC2CCCO2)cc1 (stereo not shown) [Example 162, 2-[2-(4-amidinophenyl)ethyl]-1-(tetrahydrofuran-2-yl-methyl)-benzimidazol-5-yl-carboxylic acid-N-[4-(amino-methyl)-benzyl]-N-cyclohexylmethyl-amide]	
60		CCCCN(CCCC)CCCn1c(CCc2ccc(C(=N)N)cc2)nc2cc(C(=O)N(Cc3ccccc3)Cc3ccc(CN)cc3)ccc21 [Example 103, 2-[2-(4-amidinophenyl)ethyl]-1-(3-di-n-butylaminopropyl)-benzimidazol-5-yl-carboxylic acid-N-[4-(amino-methyl)-benzyl]-N-benzyl-amide]	
72	135	CCCCN(Cc1ccc(CN)cc1)C(=O)c1ccc2c(c1)nc(CCc1ccc(C(=N)N)cc1)n2CCCOCC [Example 86, 2-[2-(4-amidinophenyl)ethyl]-1-(3-ethoxypropyl)-benzimidazol-5-yl-carboxylic acid-N-[4-(amino-methyl)-benzyl]-N-n-butyl-amide]	
63		N=C(N)c1ccc(CCc2nc3cc(C(=O)N(Cc4ccc(CN)cc4)CC4CCCCC4)ccc3n2CC2CC2)cc1 [Example 154, 2-[2-(4-amidinophenyl)ethyl]-1-cyclopropylmethyl-benzimidazol-5-yl-carboxylic acid-N-[4-(amino-methyl)-benzyl]-N-cyclohexylmethyl-amide]	
57		N=C(N)c1ccc(CCc2nc3cc(C(=O)N(CCN)Cc4ccccc4)ccc3n2Cc2cccs2)cc1 [Example 307, 2-[2-(4-amidinophenyl)ethyl]-1-(2-thiophenyl-methyl)-benzimidazol-5-yl-carboxylic acid-N-(2-aminoethyl)-N-benzyl-amide]	
69		COc1cccc(CN(Cc2ccc(CN)cc2)C(=O)c2ccc3c(c2)nc(CCc2ccc(C(=N)N)cc2)n3CCCNC(=O)Cc2ccccc2)c1 [Example 72, 2-[2-(4-amidinophenyl)ethyl]-1-[3-(benzylcarbonylamino)-propyl]-benzimidazol-5-yl-carboxylic acid-N-[4-(amino-methyl)-benzyl]-N-(3-methoxybenzyl)-amide]	
58		N=C(N)c1ccc(CCc2nc3cc(C(=O)N(Cc4ccc(CN)cc4)Cc4ccc5ccccc5c4)ccc3n2CCCNC(=O)Cc2ccccc2)cc1 [Example 232, 2-[2-(4-amidinophenyl)ethyl]-1-[3-(benzylcarbonylamino)-propyl]-benzimidazol-5-yl-carboxylic acid-N-[4-(amino-methyl)-benzyl]-N-(2-naphthylmethyl)-amide]	
55		CCCCN(CCN)C(=O)c1ccc2c(c1)nc(CCc1ccc(C(=N)N)cc1)n2CCc1ccc(Cl)cc1 [Example 284, 2-[2-(4-amidinophenyl)ethyl]-1-[2-(4-chlorophenyl)ethyl]-benzimidazol-5-yl-carboxylic acid-N-(2-aminoethyl)-N-n-butyl-amide]	
57		N=C(N)c1ccc(CCc2nc3cc(C(=O)N(CCCc4ccccc4)Cc4ccc(CN)cc4)ccc3n2CC2CC2)cc1 [Example 170, 2-[2-(4-amidinophenyl)ethyl]-1-cyclopropylmethyl-benzimidazol-5-yl-carboxylic acid-N-[4-(amino-methyl)-benzyl]-N-(3-phenylpropyl)-amide]	
62		N=C(N)c1ccc(CCc2nc3cc(C(=O)N(CCN)Cc4ccccc4)ccc3n2CC2CCCO2)cc1 (stereo not shown) [Example 306, 2-[2-(4-amidinophenyl)ethyl]-1-(tetrahydrofuran-2-yl-methyl)-benzimidazol-5-yl-carboxylic acid-N-(2-aminoethyl)-N-benzyl-amide]	
52		Cc1ccc(Cn2c(CCc3ccc(C(=N)N)cc3)nc3cc(C(=O)N(Cc4ccc(CN)cc4)Cc4ccc5ccccc5c4)ccc32)cc1 [Example 237, 2-[2-(4-amidinophenyl)ethyl]-1-(4-methylbenzyl)-benzimidazol-5-yl-carboxylic acid-N-[4-(amino-methyl)-benzyl]-N-(2-naphthylmethyl)-amide]	
72		COC(=O)c1ccc(CN(Cc2ccc(CN)cc2)C(=O)c2ccc3c(c2)nc(CCc2ccc(C(=N)N)cc2)n3CC2CCCO2)cc1 (stereo not shown) [Example 450, 2-[2-(4-amidinophenyl)ethyl]-1-(tetrahydrofuran-2-yl-methyl)-benzimidazol-5-yl-carboxylic acid-N-[4-(amino-methyl)-benzyl]-N-[4-(methoxycarbonyl)-benzyl]-amide]	
